The values below come from ChEMBL document CHEMBL5634192, “Transforming Therapeutic Approaches with PROTAC Technology: New Targets and Potentials” (ACS Med Chem Lett, 2024).

Assay [1] deals with T1, von Hippel-Lindau disease tumor suppressor/Interleukin-1 receptor-associated kinase 4 (Homo sapiens, UniProt Q9NWZ3+P40337). Put plainly: PROTAC activity at VHL E3 ligase/IRAK4 in human PBMC cells assessed as induction of degradation of IRAK4 incubated overnight by ELISA method. Format: cell-based.
The target of assay [2] is T1, von Hippel-Lindau disease tumor suppressor/Interleukin-1 receptor-associated kinase 4. Description: PROTAC activity at VHL E3 ligase/IRAK4 in human PBMC cells assessed as induction of degradation of IRAK4 incubated overnight by ELISA method relative to control. The assay is classed as cell-based. In general terms: An ELISA detects its analyte on a solid surface through an enzyme-linked reagent.
Target sequence in this assay (P40337 whole entry, looked up): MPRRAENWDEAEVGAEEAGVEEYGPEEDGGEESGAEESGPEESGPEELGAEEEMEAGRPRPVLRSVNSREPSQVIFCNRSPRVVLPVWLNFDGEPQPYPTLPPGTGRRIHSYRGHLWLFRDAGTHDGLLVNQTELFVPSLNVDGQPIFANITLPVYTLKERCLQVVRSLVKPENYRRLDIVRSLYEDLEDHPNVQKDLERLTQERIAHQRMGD
Target sequence in this assay (Q9NWZ3 whole entry, looked up): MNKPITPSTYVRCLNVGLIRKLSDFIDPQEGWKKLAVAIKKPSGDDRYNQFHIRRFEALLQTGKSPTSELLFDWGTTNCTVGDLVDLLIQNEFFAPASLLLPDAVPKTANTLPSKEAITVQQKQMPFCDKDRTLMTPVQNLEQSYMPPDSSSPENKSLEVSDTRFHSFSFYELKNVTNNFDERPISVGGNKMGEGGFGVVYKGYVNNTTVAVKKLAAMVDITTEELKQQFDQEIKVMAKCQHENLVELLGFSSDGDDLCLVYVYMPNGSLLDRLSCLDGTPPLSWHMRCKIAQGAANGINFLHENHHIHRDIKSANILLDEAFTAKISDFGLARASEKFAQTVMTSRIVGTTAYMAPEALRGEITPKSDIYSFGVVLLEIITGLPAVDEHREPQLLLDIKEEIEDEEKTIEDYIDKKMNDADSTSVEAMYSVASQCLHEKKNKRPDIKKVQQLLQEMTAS

Broadly, the DC50 is the concentration giving 50% degradation. In general, EC90 refers to the concentration needed for an effect of 90%. In general, Emax refers to the maximal effect, on the per cent scale that the assay sets. `CC(C)Oc1cc2c(cc1NC(=O)c1cnn3cccnc13)CN(C1CCN(CC3CCN(c4ccc(C5CCC(=O)NC5=O)cc4)CC3)CC1)C2=O` (centres undefined): in assay [1], the DC50 worked out at 1 nM and the EC90 is less than 10 nM. Further, the Emax in assay [2] was greater than 90%.
In the same order, the values of `O=C1CCC(c2ccc(N3CC(F)(CN4CCC(n5cc6cc(NC(=O)c7cnn8cccnc78)c(N7CCC(N8CCC8)CC7)cc6n5)CC4)C3)cc2F)C(=O)N1` (centres undefined) are less than 1 nM, less than 10 nM and greater than 90%.
`CC(C)Oc1cc2c(cc1NC(=O)c1cnn3cccnc13)CN(C1CCN(CC3CCN(c4ccc(C5CCC(=O)NC5=O)c(F)c4)CC3)CC1)C2=O` (centres undefined): in assay [1], the DC50 was less than 1 nM and the EC90 was less than 10 nM. In addition, in assay [2], the Emax was greater than 90%.
In the same order, the values of `CC(C)Oc1nc2c(cc1NC(=O)c1cnn3cccnc13)CN(C1CCN(CC3CCN(c4ccc(C5CCC(=O)NC5=O)c(F)c4)CC3)CC1)C2=O` (centres undefined) are less than 1 nM, less than 10 nM and greater than 90%.
The corresponding values for `CC(C)Oc1cc2c(cc1NC(=O)c1cnn3cccnc13)CN(C1CCN(CC3CCN(c4ccc(C5CCC(=O)NC5=O)cn4)CC3)CC1)C2=O` (centres undefined) are less than 1 nM, less than 10 nM and greater than 90%.
The corresponding values for `O=C1CCC(c2ccc(N3CCC4(CCC(CN5CCC(n6cc7cc(NC(=O)c8cnn9cccnc89)c(OCC8CC8)cc7n6)CC5)CC4)CC3)cc2F)C(=O)N1` (centres undefined) are less than 1 nM, less than 10 nM and greater than 90%.
With `O=C1CCC(c2ccc(N3CCC4(CC3)CC(CN3CCC(n5cc6cc(NC(=O)c7cnn8cccnc78)c(OCC7CC7)cc6n5)CC3)C4)cc2F)C(=O)N1` (centres undefined), in assay [1], the DC50 came to 1 nM and the EC90 is less than 10 nM. Moreover, in assay [2], the maximal effect (Emax) is greater than 90%.
In the case of `O=C1CCC(c2ccc(N3CC(F)(CN4CCC(n5cc6cc(NC(=O)c7cnn8cccnc78)c(OCC7CC7)cc6n5)CC4)C3)cc2F)C(=O)N1` (centres undefined), in assay [1], the DC50 is less than 1 nM and the EC90 was less than 10 nM. Also, the Emax in assay [2] was greater than 90%.
